From patent US11116759B2, “Method of treating cancer” (Exelixis, Inc., priority 2011, dated 2021)

Experiments:
[1] = Phase 1 clinical study, tolerability; type: in vivo; settings: most common adverse events fatigue, diarrhea, anorexia, rash, palmar-plantar erythrodysesthesia
[2] = tested on: melanoma, including ocular melanoma; experiment: Phase 2 randomized discontinuation trial in adults with melanoma (NCT00940225); type: in vivo, human
Procedure: Compound 1 was used in a Phase 2 randomized discontinuation trial study of adults with melanoma, including ocular melanoma (See NCT00940225, Abstract 371). Compound 1 was administered at a daily dose of 100 mg (125 mg salt equivalent). The study endpoints included objective response rate (ORR) per mRECIST in the lead-in stage, and progression-free survival in the randomized stage. The eligibility criteria included: (a) pathologically and radiologically confirmed diagnosis of advanced melanoma; (b) cutaneous, mucosal, or ocular subtypes; (c) up to two lines of prior systemic treatment (not including immunotherapy); (d) documented progressive disease and measurable target lesion(s) per mRECIST; and (e) no known brain metastases. Tumors were assessed by CT/MRI at baseline and every 6 weeks thereafter. Archival tumor tissue was retained for genotyping and biomarker analysis.

[3] = tested on: endothelial cells and tumor cells; experiment: Apoptosis of endothelial cells and tumor cells; type: cell-based
[4] = tested on: pancreatic neuroendocrine tumor; experiment: Murine pancreatic neuroendocrine tumor model; type: in vivo
[5] = tested on: xenograft tumor models; experiment: Xenograft tumor models; type: in vivo

In the case of COc1cc2nccc(Oc3ccc(NC(=O)C4(C(=O)Nc5ccc(F)cc5)CC4)cc3)c2cc1OC [Compound 1, N-(4-{[6,7-bis(methyloxy)quinolin-4-yl]oxy}phenyl)-N′-(4-fluorophenyl)cyclopropane-1,1-dicarboxamide], the Tolerability [1] is reported as “generally well-tolerated”, the “Patients with objective tumor shrinkage” value ([2]; all enrolled patients with melanoma, daily dose of 100 mg) is reported as “sixty” and the Best response ([2]; ocular melanoma Patients 5, 6, 14, 15, 18, 20, 22, 26, 28 and 29 (FIGS. 4A and 4B)) is reported as “stable disease”. The “Patients with evidence of objective tumor regression” value ([2]; patients with ocular cancer, six months) was 48%, the Disease control rate ([2]; patients with ocular cancer, week 12) was 14% and the “Patients showing a positive disease control rate” value ([2]; patients with ocular melanoma who were tested (FIG. 3)) was “Eight of the fourteen”. The Partial response observed ([2]; patients with ocular melanoma, week 6) was “One”, the Induction of apoptosis [3] was “rapidly induces apoptosis” and the Overall survival [4] was “substantially improves overall survival”. For the same molecule, the “Tumor invasiveness and metastasis” value [4] was “significantly reduces tumor invasiveness and metastasis” and the Effect on tumor [5] was “causes tumor regression”.
